# Tested on: wild-type (WT) Mtb
# Type: cell-based, Mycobacterium tuberculosis
row,Structure (SMILES),IC50
1,CCCCCCC#Cc1cncc(-c2nnc(SCCn3c([N+](=O)[O-])cnc3C)n2C)c1 [drawing 58],22 µM
2,CCCCCCC#Cc1cncc(-c2nnc(SCc3ccc(Cl)cc3)n2C2CC2)c1 [drawing 77],3.3 µM
3,CCCCCCC#Cc1cncc(-c2nnc(SCc3ccc(Cl)cc3)n2C)c1 [drawing 51],5.3 µM
4,Cn1c(SCc2ccc(Cl)cc2)nnc1-c1cncc(C#Cc2ccccc2)c1 [drawing 88],4 µM
5,CCCCCCC#Cc1cncc(-c2nnc(SCc3ccc(Cl)cc3)n2CCCC)c1,> 200 µM
6,Cn1c(SCc2ccc(Cl)cc2)nnc1-c1cncc(Br)c1,> 200 µM
7,CCCCCCC#Cc1cncc(-c2nnc(SC)n2C)c1,48 µM
8,Cn1c(SCc2ccc(Cl)cc2)nnc1-c1cccnc1,> 200 µM
9,CCCCCCC#Cc1cncc(-c2nnc(SCc3ccc(Br)cc3)n2C)c1 [drawing 55 R = Br],4.6 µM
10,CCCCCCC#Cc1cncc(-c2nnc(SCc3cc(C(F)(F)F)cc(C(F)(F)F)c3)n2C)c1,> 200 µM
11,CCCCCCC#Cc1cncc(-c2nnc(Sc3ccc(Cl)cc3)n2C)c1,13 µM
12,CCCC#Cc1cncc(-c2nnc(SCc3ccc(Cl)cc3)n2C)c1,15 µM
13,CCCCCCC#Cc1cncc(-c2nnc(SCc3ccc(Cl)c(Cl)c3)n2C)c1 [drawing 67],6.8 µM
14,CCCCCCC#Cc1cncc(-c2nnc(SCc3cc([N+](=O)[O-])cc(C(F)(F)F)c3)n2C)c1,> 200 µM
15,CCCCCCC#Cc1cncc(-c2nnc(SCc3ccc(C#N)cc3)n2C)c1 [drawing 55 R = CN],8.9 µM
16,CCCCCCC#Cc1cncc(-c2nnc(SCc3ccc4nonc4c3)n2C)c1,> 200 µM
17,CCCCCCC#Cc1cncc(-c2nnc(SCc3ccc(Cl)c(F)c3)n2C)c1 [drawing 52],4.1 µM
18,CCCCCCC#Cc1cncc(-c2nnc(SCc3ccc(Cl)cc3[N+](=O)[O-])n2C)c1,> 200 µM
19,CCCCCCC#Cc1cncc(-c2nnc(SCCc3ccc(Cl)cc3)n2C)c1,8.2 µM
20,CCCCCCC#Cc1cncc(-c2nnc(SCc3ccc([N+](=O)[O-])o3)n2C)c1 [drawing 61],0.55 µM
21,CCCCCCC#Cc1ccc(-c2nnc(SCc3ccc(Cl)cc3)n2C)cn1,> 200 µM
22,CCCCCCC#Cc1cncc(-c2nnc(SCc3cccc(Cl)c3)n2C)c1 [drawing 64 R = Cl],15 µM
23,CCCCCCC#Cc1cncc(-c2nnc(SCc3ccc(Cl)cc3)n2-c2ccccc2)c1,> 200 µM
24,CCCCCCC#Cc1cncc(-c2nnc(SCc3ccc(-c4ccccc4)cc3)n2C)c1 [drawing 55 R = Ph],197 µM
25,C#Cc1cncc(-c2nnc(SCc3ccc(Cl)cc3)n2C)c1 [drawing 87],86 µM

# — patent publication US20250136574A1, “SELECTIVE AGENTS TARGETING MYCOBACTERIUM TUBERCULOSIS” (priority 2022, published 2025)
